The subject of one series is CHO cells. In words: CHO cell toxicity summarised across the four CHO cell lines. In kind it is cell-based, Chinese hamster. As to conditions: Cricetulus griseus, read-out: GI50 across all cell lines. As to the method: (§1) To assay the potential toxicity induced in the CHO cell culture by the Trp degradation products found in this study, a cytotoxicity assay CellTiter-Glo® Luminescent Cell Viability Assay (Cat #G7572, Promega, Madison, WI, USA) was used, following the manufacturer’s instructions. Briefly, the cells were seeded with 25,000 viable cells per cavity of a 96-well opaque white cell culture plate (Thermo Fisher, Waltham, MA, USA) in 80 µL of a pre-warmed medium. Tryptophan degradation compounds were added in triplicates to the cells, ranging from 1 mM to 46 nM. A DMSO control was added in the same concentration range as the tryptophan degradation compounds were diluted. The dose response curves were fitted with a 4PL model by GraphPad Prism v.7 (GraphPad Software, San Diego, CA, USA) after luminescence readout with an EnVision 2104 Multilabel Reader (Perkin Elmer, Waltham, MA, USA).

The nature of series [1]: Color measurement (ΔE*) of standards spiked into feed. It is filed as physicochemical. As to conditions: theoretical 500 µM, 1% DMSO, ΔE* > 1 deemed significant. As to the method:
(§2) Compounds were dissolved in DMSO at 50 mM and then spiked into the solutions to achieve a final compound concentration of 500µM. Some of the tested compounds formed a precipitate immediately upon spiking of the DMSO solution. As the precipitates in solution can interfere with the absorption measurement, each sample was centrifuged prior to taking absorption measurements, meaning that the final concentrations were not all at 500 µM. […] In stability experiments, eight of these nine compounds (all except 46) were present in at least one condition in the degraded water samples, and four of these nine compounds (28, 31, 38, and 46) were present in the degraded feed.
(§3) Absorbance measurements were taken in the range of 380 nm to 780 nm (20 nm steps) of 100 µL of the samples in four technical replicates (Envision, Perkin Elmer, Waltham, MA, USA). From the absorbance values, the change in color was calculated using L*a*b* and ΔE* values according to DIN 5033-3 and DIN 6174 norms. The CIE 1931 standard observer (2°) and the D65 illuminant were selected.
(§4) Chemical standards were prepared as 50 mM stocks in DMSO and then spiked into the aqueous solutions (either water or feed) to achieve a theoretical compound concentration of 500 µM (1% DMSO). The solutions were centrifuged, and the absorbance measurements of these solutions was measured and converted to ΔE* values as described above. The control condition was pure DMSO (1% v/v).

Another series concerns bacteria. On the set-up: method as in PMID 24930832. The conditions noted are these: cited from earlier work.
The subject of a further series is CHOK1 GS cells. In words: CellTiter-Glo cytotoxicity assay in CHOK1 GS cell line. The conditions noted are these: Cricetulus griseus. In kind it is cell-based, Chinese hamster. As to the method: To assay the potential toxicity induced in the CHO cell culture by the Trp degradation products found in this study, a cytotoxicity assay CellTiter-Glo® Luminescent Cell Viability Assay (Cat #G7572, Promega, Madison, WI, USA) was used, following the manufacturer’s instructions. Briefly, the cells were seeded with 25,000 viable cells per cavity of a 96-well opaque white cell culture plate (Thermo Fisher, Waltham, MA, USA) in 80 µL of a pre-warmed medium. […] A DMSO control was added in the same concentration range as the tryptophan degradation compounds were diluted.

The next series has as its system CHOK1 cells. Put plainly: CellTiter-Glo cytotoxicity assay in CHOK1 cell line. It is filed as cell-based, Chinese hamster. The conditions noted are these: Cricetulus griseus. As to the method: as §1
The subject of the next series is CHOZN 10 cells. In words: CellTiter-Glo cytotoxicity assay in CHOZN 10 cell line. As to conditions: Cricetulus griseus, read-out: [GI50] CHOZN 10. It is filed as cell-based, Chinese hamster. As to the method: as §1
Another series deals with CHOZN 6 cells. Put plainly: CellTiter-Glo cytotoxicity assay in CHOZN 6 cell line. It is filed as cell-based, Chinese hamster. The conditions noted are these: Cricetulus griseus, read-out: [GI50] CHOZN 6. As for the experimental part: as §1
Series [2] can be described thus: Color measurement (ΔE*) of standards spiked into water. In kind it is physicochemical. The conditions noted are these: theoretical 500 µM, 1% DMSO, ΔE* > 1 deemed significant. As for the experimental part: as §2, §3, §4
A further series relates to human cancer cell lines. On the set-up: method as in PMID 24930832. As to conditions: cited from earlier work.
Series [3] is described as follows: Degradation of tryptophan in water under stressed conditions. In kind it is physicochemical. The conditions noted are these: 10 mM Trp in water pH 7, 70 °C, after 24 days. As to the method:
For the Trp solutions, 10 mM Trp solutions were prepared in water with a pH adjustment to pH 7.0 ± 0.3 using NaOH(aq.) and sterile filtered with Steriflip® filter units (Merck, Darmstadt, Germany). For H2O2 exposure testing, the solutions were spiked with hydrogen peroxide (30%, 8.82 M) to 0, 10, 25, 50, or 100 mM, and stored for 4h at RT (~19–23 °C), light-protected. For the UV exposure effects, the solutions were stored for 4 h under a UV-lamp set to an intensity of 540 V (UV-A, -B and -C radiation). Samples tested for temperature effects were stored light-protected for 24 days at 4 °C, room temperature (RT, i.e., ~19–23 °C), 37 °C, or 70 °C. Feed solutions were sterile-filtered as above and stored for 98 days at 4 °C, RT (~19–23 °C) or 37 °C. The samples were either stored light-protected or exposed to laboratory fluorescent lighting with partial exposure to glass-filtered daylight (light-exposed). For testing the a-ketoglutaric acid effects in feed, dry powder feed was reconstituted with a-ketoglutaric acid, pH adjusted to 7.0 ± 0.3 with NaOH (aq.), filtered as above, and stored light-protected at RT (~19–23 °C) or 37 °C for 98 days. Ammonia was quantified using Cedex Bio HT (Roche, Mannheim, Germany). Aliquots were frozen at −20 °C for subsequent amino acid analysis and LC-MS.
Amino acid analysis was performed using a pre-column derivatization using the AccQ Tag® Ultra Reagent kit. […]

Series [4] has as its system cancerous and non-cancerous human cell lines. On the set-up: method as in PMID 28720329, PMID 22819942, PMID 32792961. As to conditions: wide range of human cell lines; cited from earlier work.

Structures are written as SMILES. Read-outs that look alike come from different tables or passages of the source.

On to `c1ccc2c(-c3nccc4c3[nH]c3ccccc34)c[nH]c2c1` [Compound 34, 1-(1H-Indol-3-yl)-9H-pyrido[3,4-b]indole], for which the GI50 in the series on CHO cells (across all four CHO cell lines) was 10 to 22 µM; with CHOK1 GS cells (CHO-K1, CHOK1 GS cell line, 1 mM to 46 nM, 4PL fit, read-out: [GI50] CHOK1 GS), 24 µM; in the series with CHOK1 cells (CHO-K1, CHOK1 cell line, 1 mM to 46 nM, 4PL fit, read-out: [GI50] CHOK1) it was 10.6 µM; in the series on CHOZN 10 cells (CHOZN 10 cell line, 1 mM to 46 nM, 4PL fit), 13.1 µM; in the series with CHOZN 6 cells (CHOZN 6 cell line, 1 mM to 46 nM, 4PL fit) it was 12.3 µM. The “Color change as measured by ΔE* in feed” value in series [1] was “significant color change”. In addition, in the series with bacteria, the antibacterial activity result is “most potent as an antibacterial agent”. For the same compound, the “Color change as measured by ΔE* in water” value in [2] is reported as “significant color change”. Besides, in the series on human cancer cell lines, the “toxicity in human cancer cell lines” value is “some toxicity”.
`N[C@@H](Cc1c[nH]c2ccccc12)C(=O)O` [Trp, L-Tryptophan] returned a Trp total loss in series [3] of 42%.
Regarding `O=C1c2ccccc2-n2c1nc1ccccc1c2=O` [Compound 39, Tryptanthrin], the GI50 in the series on CHO cells (CHO) is at most 1.1 µM; in the series on CHOK1 GS cells (CHO-K1, read-out: [GI50] CHOK1 GS) it was below 0.13 µM; in the series on CHOK1 cells (CHO-K1, read-out: [GI50] CHOK1), 0.2 µM; in the series with CHOZN 10 cells it was 1.05 µM; in the series on CHOZN 6 cells, 1.1 µM. Also, the “toxicity against cancerous and non-cancerous human cell lines” value in series [4] is “low micromolar toxicity”. For the same compound, in series [1], the “Color change as measured by ΔE* in feed” value was “significant color change”. In addition, in series [2], the “Color change as measured by ΔE* in water” value was “significant color change”.

Values taken from paper PMC8228365, “Degradation Products of Tryptophan in Cell Culture Media: Contribution to Color and Toxicity” (International Journal of Molecular Sciences, 2021).
